How the values were obtained:
[1] = molecular target: T1, Amine oxidase [flavin-containing] B (Homo sapiens, UniProt P27338); assay: Inhibition of human recombinant MAO-B using benzylamine hydrochloride as substrate assessed as H2O2 synthesis after 1 hr by fluorescence assay
T1 sequence (P27338 whole entry): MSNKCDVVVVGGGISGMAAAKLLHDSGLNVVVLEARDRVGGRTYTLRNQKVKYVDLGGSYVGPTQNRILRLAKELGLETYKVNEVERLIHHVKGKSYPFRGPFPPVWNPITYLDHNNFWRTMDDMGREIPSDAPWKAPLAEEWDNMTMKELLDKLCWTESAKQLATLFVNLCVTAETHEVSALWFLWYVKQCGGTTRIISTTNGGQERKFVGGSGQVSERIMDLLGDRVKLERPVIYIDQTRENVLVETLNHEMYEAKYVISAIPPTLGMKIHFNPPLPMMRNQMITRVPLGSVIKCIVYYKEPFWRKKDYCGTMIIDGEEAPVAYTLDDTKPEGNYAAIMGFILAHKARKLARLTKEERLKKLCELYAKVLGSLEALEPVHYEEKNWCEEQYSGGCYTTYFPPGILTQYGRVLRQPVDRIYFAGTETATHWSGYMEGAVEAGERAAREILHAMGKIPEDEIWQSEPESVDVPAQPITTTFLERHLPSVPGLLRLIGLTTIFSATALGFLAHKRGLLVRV

[2] = molecular target: T1, Amine oxidase [flavin-containing] B; assay: Inhibition of human recombinant MAO-B using benzylamine hydrochloride as substrate assessed as H2O2 synthesis at 10 uM after 1 hr by fluorescence assay; settings: read-out: INH

IC50 [1] | inhibition at 10 µM [2] | Structure (SMILES)
270 nM | 93.4% | Fc1ccc(-c2nc3ccc(N4CCCCC4)nc3o2)cc1
171 nM | 95.1% | Clc1ccccc1-c1nc2ccc(N3CCCCC3)nc2s1
 | 19% | CNc1ccc2nc(-c3ccccc3)oc2n1
890 nM | 69.8% | Clc1ccc(-c2nc3ccc(N4CCCCC4)nc3o2)cc1
26.5 nM | 92.7% | Fc1ccc(-c2nc3ccc(N4CCCCC4)nc3s2)cc1
267 nM | 96.3% | Clc1ccccc1-c1nc2ccc(N3CCCCC3)nc2o1
356 nM | 95.5% | c1ccc(-c2nc3ccc(N4CCCCC4)nc3s2)cc1
 | 4.8% | c1ccc(CNc2ccc3nc(-c4ccccc4)oc3n2)cc1

The next lines start with the compound.

Structure (SMILES) | IC50 [1] | inhibition at 10 µM [2]
c1ccc(-c2nc3ccc(NC4CCCCC4)nc3o2)cc1 | 2540 nM | 79.1%
Fc1cccc(-c2nc3ccc(N4CCCCC4)nc3o2)c1 |  | 89.7%
c1ccc(-c2nc3ccc(N4CCCCC4)nc3o2)cc1 | 1370 nM | 86.8%
Fc1ccccc1-c1nc2ccc(N3CCCCC3)nc2o1 | 665 nM | 94.9%
CN(Cc1ccccc1)c1ccc2nc(-c3ccccc3)oc2n1 |  | 3.7%
Clc1cccc(-c2nc3ccc(N4CCCCC4)nc3o2)c1 | 335 nM | 91.7%
c1ccc(-c2nc3ccc(N4CCCCCC4)nc3o2)cc1 |  | 57.9%
Clc1ccc(-c2nc3ccc(N4CCCCC4)nc3s2)cc1 | 358 nM | 84.2%
